Data reported in US20080234288A1, “Hcv Inhibiting Sulfonamides” (priority 2003, published 2008).
pEC50: −log10 of the molar value.

System: HCV replicon (NS3-NS5B regions of HCV type 1b) in Huh-7 luc/neo cells
Experiment: HCV replicon assay, stable replicon cell reporter assay (Huh-Luc, luciferase)
Assay type: cell-based
Details: Hepatitis C virus, Huh-7, 72 h, incubation of three days, luciferase activity
Source text: The compounds of the present invention were examined for activity in the inhibition of HCV RNA replication in a cellular assay. […] The cellular assay was based on a bicistronic expression construct, as described by Lohmann et al. (1999) Science vol. 285 pp. 110-113 with modifications described by Krieger et al. (2001) Journal of Virology 75: 4614-4624, in a multi-target screening strategy. In essence, the method is as follows.
The assay utilized the stably transfected cell line Huh-7 luc/neo (hereafter referred to as Huh-Luc; kindly provided by Dr Ralf Bartenschlager, Reblikon GmBh, Germany). This cell line harbors an RNA encoding a bicistronic expression construct comprising the wild type NS3-NS5B regions of HCV type 1b translated from an Internal Ribosome Entry Site (IRES) from encephalomyocarditis virus (EMCV), preceded by a reporter portion (FfL-luciferase), and a selectable marker portion (neo^R, neomycine phosphotransferase). The construct was bordered by 5′ and 3′ NTRs (non-translated regions) from HCV type 1b. Continued culture of the replicon cells in the presence of G418 (neo^R) is dependent on the replication of the HCV RNA. The stably transfected replicon cells that express HCV RNA, which replicates autonomously and to high levels, encoding inter alia luciferase, were used for screening the antiviral compounds.
The replicon cells were plated in 384 well plates in the presence of the test and control compounds which were added in various concentrations. Following an incubation of three days, HCV replication was measured by assaying luciferase activity (using standard luciferase assay substrates and reagents and a Perkin Elmer ViewLux™ ultraHTS microplate imager). Replicon cells in the control cultures have high luciferase expression in the absence of any inhibitor. The inhibitory activity of the compound on luciferase activity was monitored on the Huh-Luc cells, enabling a dose-response curve for each test compound. EC50 values were then calculated, which value represents the amount of the compound required to decrease by 50% the level of detected luciferase activity, or more specifically, the ability of the genetically linked HCV replicon RNA to replicate (Table 1).

Row | SMILES | pEC50
1 | CC(=O)Nc1nc2ccc(S(=O)(=O)N(CC(C)C)CC(O)C(Cc3ccccc3)NC(=O)OCc3cncs3)cc2o1 (stereo not shown) [Compound 1, {3-[(2-Acetylamino-benzooxazole-6-sulfonyl)-isobutyl-amino]-1-benzyl-2-hydroxy-propyl}-carbamic acid thiazol-5-ylmethyl ester] | 5.00 to 5.70
2 | CCOC(=O)Nc1nc2ccc(S(=O)(=O)N(CC(C)C)CC(O)C(Cc3ccccc3)NC(=O)OCc3cncs3)cc2o1 (stereo not shown) [Compound 2, (6-{[2-Hydroxy-4-phenyl-3-(thiazol-5-ylmethoxycarbonyl-amino)-butyl]-isobutyl-sulfamoyl}-benzooxazol-2-yl)-carbamic acid ethyl ester] | 4.49 to 5.00
3 | CC(C)CN(CC(O)C(Cc1ccccc1)NC(=O)OCc1cncs1)S(=O)(=O)c1ccc2nc(NC(=O)c3ccc(O)nc3)oc2c1 (stereo not shown) [Compound 3, [1-Benzyl-2-hydroxy-3-({2-[(6-hydroxy-pyridine-3-carbonyl)-amino]-benzooxazole-6-sulfonyl}-isobutyl-amino)-propyl]-carbamic acid thiazol-5-ylmethyl ester] | > 5.70
4 | CC(C)CN(CC(O)C(Cc1ccccc1)NC(=O)OCc1cncs1)S(=O)(=O)c1ccc2nc(NC(=O)c3cccnc3)oc2c1 (stereo not shown) [Compound 4, [1-Benzyl-2-hydroxy-3-(isobutyl-{2-[(pyridine-3-carbonyl)-amino]-benzooxazole-6-sulfonyl}-amino)-propyl]-carbamic acid thiazol-5-ylmethyl ester] | 5.00 to 5.70
5 | CC(C)CN(CC(O)C(Cc1ccccc1)NC(=O)OCc1cncs1)S(=O)(=O)c1ccc2nc(N3CCCC3)oc2c1 (stereo not shown) [Compound 5, {1-Benzyl-2-hydroxy-3-[isobutyl-(2-pyrrolidin-1-yl-benzo-oxazole-6-sulfonyl)-amino]-propyl}-carbamic acid thiazol-5-ylmethyl ester] | 5.00 to 5.70
6 | CC(C)CN(CC(O)C(Cc1ccccc1)NC(=O)OCc1cncs1)S(=O)(=O)c1ccc2nc(N(C)CCN3CCCC3)oc2c1 (stereo not shown) [Compound 6, {1-Benzyl-2-hydroxy-3-(isobutyl-{2-[methyl-(2-pyrrolidin-1-yl-ethyl)-amino]-benzooxazole-6-sulfonyl}-amino)-propyl]-carbamic acid thiazol-5-ylmethyl ester] | 4.49 to 5.00
7 | CC(C)CN(CC(O)C(Cc1ccccc1)NC(=O)OCc1cncs1)S(=O)(=O)c1ccc2nc(NC(=O)CN3CCN(C)CC3)oc2c1 (stereo not shown) [Compound 7, [1-Benzyl-2-hydroxy-3-(isobutyl-{2-[2-(4-methyl-piperazin-1-yl)-acetylamino]-benzooxazole-6-sulfonyl}-amino)-propyl]-carbamic acid thiazol-5-ylmethyl ester] | 5.00 to 5.70
8 | CC(C)CN(CC(O)C(Cc1ccccc1)NC(=O)OCc1cncs1)S(=O)(=O)c1ccc2nc(N(C)C(=O)C3CCC(=O)N3)oc2c1 (stereo not shown) [Compound 8, [1-Benzyl-2-hydroxy-3-(isobutyl-{2-[methyl-(5-oxo-pyrrolidine-2-carbonyl)-amino]-benzooxazole-6-sulfonyl}-amino)-propyl]-carbamic acid thiazol-5-ylmethyl ester] | 4.49 to 5.00
9 | CC(C)CN(CC(O)C(Cc1ccccc1)NC(=O)OCc1cncs1)S(=O)(=O)c1ccc2nc(N(C)C(=O)c3ccncc3)oc2c1 (stereo not shown) [Compound 9, [1-Benzyl-2-hydroxy-3-(isobutyl-{2-[methyl-(pyridine-4-carbonyl)-amino]-benzooxazole-6-sulfonyl}-amino)-propyl]-carbamic acid thiazol-5-ylmethyl ester] | 4.49 to 5.00
10 | CC(C)CN(CC(O)C(Cc1ccccc1)NC(=O)OCc1cncs1)S(=O)(=O)c1ccc2nc(N(C)C(=O)c3ccoc3)oc2c1 (stereo not shown) [Compound 10, [1-Benzyl-3-({2-[(furan-3-carbonyl)-methyl-amino]-benzo-oxazole-6-sulfonyl}-isobutyl-amino)-2-hydroxy-propyl]-carbamic acid thiazol-5-ylmethyl ester] | 5.00 to 5.70
